Assay results published in patent US20250127774A1, “COMPOUNDS FOR LABELLING NUCLEIC ACID AND USES THEREOF” (THE ROYAL INSTITUTION FOR THE ADVANCEMENT OF …, priority 2022, published 2025).
Like-named read-outs stand apart in the source and are kept apart here.

Assays:
[1] = tested on: MOLM-13 cells; assay: Resazurin Chou-Talalay optimized toxicity assay; format: cell-based; conditions: Homo sapiens; MOLM-13, Fa 0.50 (50% cells killed); read-out: Concentration of compound alone required at Fa
Procedure: (§1) Lastly to determine how synergistic the combination of VdU with PINK is in the three leukemia cell lines, another resazurin reduction assay was conducted where VdU and PINK were maintained at a constant 5:1 ratio. The data generated from this resazurin assay were analyzed using the synergy model developed by Chou and Talalay 30, which is based on the median effect dose (IC50) and the slope of the drug response curve, as shown in equation II: […]
(§2) The model allows to quantitatively measure the synergy of drug combinations, by generating a combination index (CI).^30 A CI below 1 indicates a synergistic interaction which means that the effect of the drug combination is greater than the effect of both drugs alone combined.^30A CI equal to 1 indicates an additive interaction which means that the effect of the drug combination is equal to the effect of both drugs alone combined.^30 A CI above 1 indicates an antagonistic interaction which means that the effect of the drug combination is less than the effect of both alone combined. […] Where a DRI above 1 is a favorable dose reduction and a DRI below 1 is an unfavorable dose reduction.^30
(§3) Resazurin Chou-Talalay optimized toxicity assay. MV4-11, MOLM-13 and Jurkat cells were seeded in 96-well plates at a density of 20 000 cells/well, 25 000 cells/well and 30 000 cells/well, respectively, in triplicates. The cells were first treated with VdU diluted in fresh media in 1:4 serial dilutions (˜0.01% DMSO) at concentrations of 500-0 μM alone and in combination, and incubated overnight. 24h post nucleoside addition, the cells were treated with PINK diluted in fresh media in 1:4 serial dilutions (˜1% DMSO) at concentrations of 100-0 μM alone or in combination, and incubated for 72 h. […] The cells were treated with resazurin, incubated and measured, as described above. The data was processed and analysed in the CompuSyn program used for running Chou-Talalay synergy analyses.^33

[2] = tested on: Jurkat cells; assay: Resazurin Chou-Talalay optimized toxicity assay; format: cell-based; conditions: Homo sapiens, Fa 0.50 (50% cells killed), read-out: Concentration of compound alone required at Fa
Procedure: as §1, §2, §3

[3] = tested on: MV4-11 cells; assay: Resazurin Chou-Talalay optimized toxicity assay; format: cell-based, human; conditions: MV4-11, Fa 0.25-0.35 (25% to 35% of cells killed)
Procedure: as §1, §2
Resazurin Chou-Talalay optimized toxicity assay. […] The cells were treated with resazurin, incubated and measured, as described above. The data was processed and analysed in the CompuSyn program used for running Chou-Talalay synergy analyses.^33

[4] = tested on: H1299 cells; assay: FACS cell cycle analysis; format: cell-based, human; conditions: H1299, 48 h and 72 h after the initial treatment
Procedure: 5-VdU and PINK combinatory impact on the cell cycle. FACS analysis of H1299 cells treated with 5-VdU/PINK whos that the cell cycle progression is severely impacted upon combinatory treatment. […] (see FIG. 26). Percentage of H1299 cells undergoing apoptosis was indicated by staining with Apotracker™ Green, induced after treatment with 1 μM 5-VdU and 10 μM PINK for different time points. H1299 cells were seeded at a density of 20% and treated with 5-VdU and PINK in the indicated concentrations. One day after the last treatment, the medium was exchanged. The cells were then stained with the Apotracker™ Green dye and Hoechst. Images were taken 72h after the first treatment. (C) H1299 cells were treated with 1 μM 5-VdU for 24 h and subsequently with 5 μM PINK for another 24 h.

[5] = tested on: MV4-11 cells; assay: Resazurin single toxicity assay; format: cell-based; conditions: Homo sapiens, compound alone
Procedure: (§4) Resazurin assays were carried out to test the effectiveness of VdU, VdA and PINK alone in MV4-11 and Jurkat. The resazurin reduction assay is a colorimetric assay which allows to determine a cell's viability based on its metabolic activities.^26 When the cells are alive, the resazurin gets reduced by NADH into its resorufin form by cellular respiration, which is pink and highly fluorescent.^26 When the cells are dead or their metabolisms are impaired, the resazurin remains in its oxidized form, which is blue and has low fluorescence.^26 The cells can then be imaged using a spectrometer to determine how viable they are after each treatment.
(§5) Resazurin Single toxicity assay. MV4-11 and Jurkat cells were seeded in 96-well plates at a density of 20 000 cells/well, in triplicates. The cells were treated with each nucleoside (VdU/VdA) alone diluted in fresh media in 1:4 serial dilutions (˜0.01% DMSO) at concentrations of 1000-0 μM. The cells were treated with PINK alone diluted in fresh media in 1:2 serial dilutions (˜1% DMSO) at concentration of 100-0 μM. The cells were then incubated for 24 h and 72h. 10 μL of 870 μM resazurin was added per well, and incubated for 2-5 hours. After incubation, the fluorescence intensity at 590 nm (excitation=560 nm) was measured using a SpectraMax M5 plate reader.

[6] = tested on: Jurkat cells; assay: Resazurin single toxicity assay; format: cell-based; conditions: Homo sapiens, compound alone
Procedure: as §4, §5

[7] = tested on: MV4-11 and Jurkat; assay: Resazurin single toxicity assay, summary over both cell lines; format: cell-based; conditions: Homo sapiens, after 24 h and 72h, read-out: IC50 summarised over both cell lines
Procedure: as §4
Overall, VdU presented itself as a good candidate for the combination therapy with PINK due to its low toxicity in the two leukemia cell lines.
as §5

[8] = tested on: C57BL/6J mice; assay: 5-VdU incorporation in rapidly proliferating cells in vivo; conditions: 500 mg/kg 5-VdU i.p. on two subsequent days
Procedure: 5-VdU incorporation in rapidly proliferating cells in vivo. C57BL/6J mice were either injected with 200 μl 10% DMSO in 1× sterile PBS as a vehicle or 500 mg/kg 5-VdU i.p. on two subsequent days and then sacrificed. Experimental group size was n=6. (A) Bone marrow was explanted, fixed, permeabilized and stained with PINK for 4 h at RT. Nuclei were counterstained with Hoechst33342. A strong nuclear signal can be observed in the PINK treated sample when compared to the controls. (B) Small intestine and (C) spleen tissue was subjected to paraffin embedding and the slides where then stained with PINK for 4 h at RT. Nuclei were counterstained with Hoechst33342. Specific nuclear signals are visible in the PINK treated sample when compared to the controls. […] These cells can be stained with PINK in FFPE sections=in vivo DNA replication/proliferation reporter.

[9] = MV4-11, 24 h incubation, read-out: IC50 value (24 h)
[10] = MV4-11, 72 h incubation, read-out: IC50 value (72 h)
[11] = 24 h incubation, read-out: IC50 value (24 h)
[12] = 72 h incubation, read-out: IC50 value (72 h)

Row | Compound | IC50 [1] | IC50 [2] | Concentration of compound alone required at Fa [3] | cell cycle profile (time course) [4] | IC50 [5, 9] | IC50 [5, 10] | IC50 [6, 11] | IC50 [6, 12] | IC50 [7] | incorporation into rapidly dividing cells (bone marrow, small intestine, spleen; PINK staining) [8] | toxicity to mice [8]
1 | Cc1nnc(-c2ccc3cc4ccc(N(C)C)cc4nc3c2)nn1 [PINK] | 1.2 µM | 1.1 µM | 3.2 µM | mostly unperturbed cell cycle profiles | 5.7 µM | 6.2 µM | 7 µM | 4.4 µM | ~5 µM |  | 
2 | C=Cc1cn([C@H]2C[C@H](O)[C@@H](CO)O2)c(=O)[nH]c1=O [VdU, 5-vinyl-2′-deoxyuridine] | 4.2 µM | 3.7 µM | 59 µM | mostly unperturbed cell cycle profiles | > 1000 µM | > 1000 µM | > 1000 µM | 52 µM | > 1000 µM | incorporates into rapidly dividing cells in vivo | non-toxic to mice at high concentrations
